# Source: US12458654B2, “Methods of conditioning patients for T cell therapy” (Kite Pharma Inc., priority 2015, dated 2025)
# Legend:
# [1] = human, in vivo
# [2] = test system: serum levels of cytokine analytes; conditions: in vivo
# [3] = test system: serum levels of cytokine analytes
# Procedure: T cell products were generated by transduction of autologous lymphocytes with a g-murine retrovirus carrying an anti-CD19 CAR construct gene, followed by expansion to achieve desired cell dose. Anti-CD19 CAR+ T cell product characteristics were evaluated at time of harvest, or after co-culture with CD19+ cells, by flow cytometry and multiplex cytokine analysis of co-culture supernatants. CAR+ T cell co-culture for product characterization was performed with K562-CD19 cells or K562-NGFR control cells, at an effector to target ratio of 1:1. Standard incubation time was 18 hours.
# Cytokine and chemokine levels were measured using EMDmillipore Luminex® xMAP® multiplex assays. Data acquisition and analysis were performed using a Luminex 200™ instrument and xPONENT® 3.1 data analysis software. For IL-7, a human IL-7 Quantikine HS ELISA Kit (HS750) was used with samples run neat per manufacturer's guidelines. The frequency of CAR T cells in circulation was measured by a quantitative PCR analysis. Patients were administered a preconditioning regimen comprising of 300 mg/m^2 cyclophosphamide on days −5 and −4, and 30 mg/m^2 fludarabine on days −5, −4, and −3. Patient sera was collected prior to administration of cyclophosphamide and fludarabine between days −12 and −5 (“pre”), immediately before administration of CAR+ T cells on day 0 (“post”) and on select days following CAR+ T cell administration up to day 18. The serum concentrations of GF-CSF, IL-2, MCP-1, IL-6, IL-10, MCP-4, CRP, IFN gamma, Granzyme A, IL-15, IL-5, Granzyme B, IL-8, IP-10, MIP-1b, PLGF, IL-16, TARC, Eotaxin-3, sICAM-1, sVCAM-1, and SAA were measured pre- and post-conditioning and on select days after administration of CAR+ T cells, as shown in FIG. 6.
# [4] = 300 mg/m^2 cyclophosphamide, 30 mg/m^2 fludarabine, pre vs day 0
molecule,measurement,setting,value
O=P1(N(CCCl)CCCl)NCCCO1 (centres unmarked) [cyclophosphamide],Incidence of dose limiting toxicity (DLT),[1],29%
cyclophosphamide and fludarabine,"CRP increase, average",[2],about 10 fold
same,"CRP increase, range",[2],essentially no change to an increase of about 25 fold
same,CRP level in patient sera after conditioning,[2],increased in some patients and remained stable or decreased in others
same,Change in serum CRP,[2],essentially no change
same,Change in serum PLGF,[2],only a slight increase
same,Change in serum VEGF-D,[2],essentially no change
same,Change in serum sICAM-1,[2],essentially no change
same,Decrease of serum MIP-1β,[2],about 50%
same,IL-15 increase relative to baseline,[2],less than 10 fold
same,"IL-15 increase relative to baseline, average",[2],about 35 fold
same,IL-15 level in patient sera after conditioning,[2],at least some increase
same,MCP-1 increase,[2],less than 4 fold
same,"MCP-1 increase, average",[2],about 5 fold
same,MCP-1 level in patient sera after conditioning,[2],at least some increase
same,MIP-1 β level in patient sera after conditioning,[2],increased in some patients and remained stable or decreased in others
same,"MIP-10 levels increase, average",[2],about 1.5 fold
same,"MIP-10 levels increase, range",[2],essentially no change to an increase of about 3 fold
same,"PLGF increase, average",[2],about 30 fold
same,"PLGF increase, range",[2],about 2 fold or less to an increase of about over 100 fold
same,PLGF level in patient sera after conditioning,[2],at least some increase
same,"VEGF-D increase, average",[2],about 3 fold
same,"VEGF-D increase, range",[2],essentially no change to an increase of about 6 fold
same,VEGF-D level in patient sera after conditioning,[2],increased in some patients and remained stable or decreased in others
same,"sICAM-1 increase, average",[2],about 3 fold
same,"sICAM-1 increase, range",[2],essentially no change to an increase of about 4.5 fold
same,sICAM-1 level in patient sera after conditioning,[2],increased in some patients and remained stable or decreased in others
same,Change in serum IP-10,[2]; ip,essentially no change
same,"IP-10 increase, average",[2]; ip,about 3.5 fold
same,IP-10 level in patient sera after conditioning,[2]; ip,increased in some patients and remained stable or decreased in others
same,Serum concentration of CRP following conditioning,[3]; [4],significantly increased
same,Serum concentration of IL-5 following conditioning,[3]; [4],Increases
same,Serum concentration of IL-7 following conditioning,[3]; [4],significantly increased
same,Serum concentration of IL-10 following conditioning,[3]; [4],Increases
same,Serum concentration of IL-15 following conditioning,[3]; [4],significantly increased
same,Serum concentration of IP-10 following conditioning,[3]; [4],Increases
same,Serum concentration of MCP-1 following conditioning,[3]; [4],significantly increased
same,Serum concentration of PLGF following conditioning,[3]; [4],significantly increased
same,Serum concentration of s-ICAM1 following conditioning,[3]; [4],Increases
same,Serum perform after conditioning,[3]; [4],decrease
same,"Markers showing changes in a majority of patients, associated with p<0.05","[3]; FIG. 14, markers measured prior to CAR T cell infusion",7 out of 41 measured markers
